Assay results published in ChEMBL document CHEMBL1255230, “Chemical inhibitor of nonapoptotic cell death with therapeutic potential for ischemic brain injury” (Nat Chem Biol, 2005).
Calls of active or inactive are those of the source. No cut-off for these calls is given here.

What was measured:
[1] = Inhibition of death receptor signaling mediated apoptosis in human Jurkat cell assessed as cytoprotection after 30 hrs by in presence of FasL, CHX and zVAD.fmk; format: cell-based
[2] = Inhibition of death receptor signaling mediated necroptotic cell death in human Jurkat cell deficient in FADD assessed as cytoprotection after 30 hrs by in presence of TNFalpha; format: cell-based
NIH3T3 [3] = assay: Inhibition of apoptosis in mouse 3T3 cells assessed as cell viability after 24 hrs by ATP based viability assay in presence of TNFalpha and CHX; format: functional
[4] = Inhibition of death receptor signaling mediated necroptotic cell death in human U937 cells assessed as cell viability after 48 hrs by ATP based viability assay in presence of TNFalpha and zVAD-fmk; conditions: U-937
[5] = Inhibition of death receptor signaling mediated necroptotic cell death in mouse 3T3 cells assessed as cell viability after 24 hrs by ATP based viability assay in presence of TNFalpha and zVAD-fmk; conditions: NIH3T3
U-937 = assay: Inhibition of oxidative stress induced necrosis in human U937 cells after 24 hrs in presence of menadione; format: functional, cell-based
[6] = Inhibition of death receptor signaling mediated necroptotic cell death in mouse 3T3 cells assessed as decreased levels of PE-conjugated autophagy marker LC3-II after 24 hrs by Western blot method in presence of TNFalpha and zVAD-fmk; format: cell-based; conditions: NIH3T3
[7] = Inhibition of death receptor signaling mediated necroptotic cell death in mouse 3T3 cells assessed as decreased levels of PE-conjugated autophagy marker LC3-II after 24 hrs by Western blot method in presence of FasL and zVAD-fmk; format: cell-based; conditions: NIH3T3
[8] = Inhibition of death receptor signaling mediated necroptotic cell death in human Jurkat cells deficient in FADD and expressing FKBP12-based dimerization domain assessed as cell viability after 48 hrs by FACS in presence of AP1510, zVAD-fmk
[9] = Inhibition of death receptor signaling mediated necroptotic cell death in human Jurkat cells deficient in FADD and expressing RIP K45M mutant assessed as cell viability after 48 hrs by FACS in presence of AP1510, zVAD-fmk; format: cell-based
[10] = Inhibition of death receptor signaling mediated necroptotic cell death in human Jurkat cells deficient in FADD and expressing FKBP12-based dimerization domain assessed as cell viability after 48 hrs by FACS in presence of AP1510
[11] = Inhibition of death receptor signaling mediated necroptotic cell death in human Jurkat cells deficient in FADD and expressing RIP kinase assessed as cell viability after 48 hrs by FACS in presence of AP1510; format: cell-based
[12] = Inhibition of death receptor signaling mediated necrotic cell death in human Jurkat cell assessed as cell viability after 30 hrs by ATP based viability assay in presence of FasL, CHX, zVAD.fmk
[13] = Inhibition of death receptor signaling mediated necrotic cell death in human Jurkat cell expressing FADD fused to FKBP12-based dimerization domain (JK-FF)assessed as cell viability after 48 hrs by ATP based viability assay in presence of AP20187 and zVAD.fmk
[14] = Inhibition of death receptor signaling mediated necrotic cell death in mouse 3T3 cells assessed as cell viability after 24 hrs by ATP based viability assay in presence of FasL and zVAD.fmk; conditions: NIH3T3
[15] = Inhibition of death receptor signaling mediated necrotic cell death in SV40 transformed mouse MEF cells assessed as cell viability after 16 hrs by ATP based viability assay in presence of TNFalpha, CHX and zVAD.fmk
[16] = Inhibition of death receptor signaling mediated necrotic cell death in rat IEC18 cells assessed as cell viability in presence of TNFalpha and zVAD.fmk; format: cell-based
[17] = Inhibition of death receptor signaling mediated necrotic cell death in human HL60 cells assessed as cell viability in presence of TNFalpha and zVAD.fmk; format: cell-based; conditions: HL-60
[18] = Inhibition of death receptor signaling mediated necroptotic cell death in human Jurkat cell deficient in FADD assessed as cell viability after 30 hrs by ATP based viability assay in presence of TNFalpha
[19] = Inhibition of death receptor signaling mediated necrotic cell death in mouse L929 cells assessed as cell viability after 24 hrs by ATP based viability assay in presence of TNFalpha
Jurkat [20] = assay: Induction of proliferative capacity in necroptotic human Jurkat cell deficient in FADD assessed as cell viability; format: functional, cell-based
[21] = Inhibition of death receptor signaling mediated apoptosis in human Jurkat cell assessed as inhibition of mitochondrial dysfunction after 24 hrs by in presence of FasL, CHX and zVAD.fmk; format: cell-based
Jurkat [22] = assay: Effect on apoptosis in human Jurkat cell assessed as cytoplasm condensation by electron microscopy in presence of FasL and CHX; format: functional, cell-based
Jurkat [23] = assay: Effect on apoptosis in human Jurkat cell assessed as chromatin marginalization by electron microscopy in presence of FasL and CHX; format: functional, cell-based
Jurkat [24] = assay: Effect on apoptosis in human Jurkat cell assessed as plasma membrane blebbing by electron microscopy in presence of FasL and CHX; format: functional, cell-based
Jurkat [25] = assay: Inhibition of necrosis in human Jurkat cells assessed as organelle swelling by bright field microscopy in presence of FasL, CHX and zVAD-fmk; format: functional, cell-based
Jurkat [26] = assay: Inhibition of necrosis in human Jurkat cells assessed as appearance of translucent cytosol in presence of FasL, CHX and zVAD-fmk; format: functional, cell-based
Jurkat [27] = assay: Inhibition of necrosis in human Jurkat cells deficient in FADD assessed as inhibition of nuclear condensation by bright field microscopy in presence of TNFalpha; format: functional, cell-based
Jurkat [28] = assay: Inhibition of necrosis in human Jurkat cells deficient in FADD assessed as inhibition of appearance of translucent cytosol in presence of TNFalpha; format: functional, cell-based
[29] = Inhibition of death receptor signaling mediated necroptotic cell death in human Jurkat cells deficient in FADD and expressing RIP K45M mutant assessed as cell viability after 48 hrs by FACS in presence of AP1510; format: cell-based
[30] = Inhibition of death receptor signaling mediated necroptotic cell death in human Jurkat cells deficient in FADD and expressing RIP kinase domain assessed as cell viability after 48 hrs by FACS in presence of AP1510; format: cell-based
Mus musculus = assay: Inhibition of necroptosis in icv dosed mouse middle cerebral artery occlusion induced ischemic injury model assessed as reduction of infarct volume; format: functional, organism-based
Jurkat [31] = assay: Effect on ATP level in human Jurkat cells; format: functional, cell-based
Jurkat [32] = assay: Effect on mitochondrial membrane potential in human Jurkat cells; format: functional, cell-based
Jurkat [33] = assay: Effect on cell cycle in human Jurkat cells assessed as cells in sub-G1 phase; format: functional, cell-based
Jurkat [34] = assay: Effect on cell cycle in human Jurkat cells assessed as cells in G2/M phase; format: functional, cell-based
Jurkat [35] = assay: Antiproliferative activity against human Jurkat cells; format: functional, cell-based
NIH3T3 [36] = assay: Effect on actin cytoskeleton in mouse 3T3 cells after 24 hrs by phalloidin-TRITC staining in presence of TNFalpha and zVAD-fmk; format: functional, cell-based
Jurkat [37] = assay: Effect on cell cycle in human Jurkat cells deficient in FADD assessed as cells in sub-G1 phase in presence of TNFalpha relative to control; format: functional
Jurkat [38] = assay: Effect on cell cycle in human Jurkat cells deficient in FADD assessed as cells in G1 phase in presence of TNFalpha relative to control; format: functional

**Q.** For `CN1C(=O)C(Cc2c[nH]c3ccccc23)NC1=S` (stereo unspecified) [NECROSTATIN], which inhibition [1] is on record?
**A.** inactive

**Q.** And the inhibition [2]?
**A.** Active

**Q.** What about the inhibition (NIH3T3 [3]) of the same compound?
**A.** inactive

**Q.** What about the inhibition [4] of the same compound?
**A.** Active

**Q.** What about the inhibition [5] of the same compound?
**A.** Active

**Q.** What about the inhibition (U-937) of the same compound?
**A.** inactive

**Q.** And the inhibition [6]?
**A.** Active

**Q.** What about the inhibition [7] of the same compound?
**A.** Active

**Q.** And the inhibition [8]?
**A.** Active

**Q.** And the inhibition [9]?
**A.** Active

**Q.** What about the inhibition [10] of the same compound?
**A.** Active

**Q.** What about the inhibition [11] of the same compound?
**A.** Active

**Q.** What about the inhibition [12] of the same compound?
**A.** Active

**Q.** And the inhibition [13]?
**A.** Active

**Q.** What about the inhibition [14] of the same compound?
**A.** Active

**Q.** And the inhibition [15]?
**A.** Active

**Q.** And the inhibition [16]?
**A.** Active

**Q.** What about the inhibition [17] of the same compound?
**A.** Active

**Q.** What about the IC50 [18] of the same compound?
**A.** 494 nM

**Q.** And the inhibition [18]?
**A.** Active

**Q.** And the inhibition [19]?
**A.** Active

**Q.** And the Activity (Jurkat [20])?
**A.** Active

**Q.** And the inhibition [21]?
**A.** Active

**Q.** What about the Activity (Jurkat [22]) of the same compound?
**A.** inactive

**Q.** And the Activity (Jurkat [23])?
**A.** inactive

**Q.** What about the Activity (Jurkat [24]) of the same compound?
**A.** inactive

**Q.** And the inhibition (Jurkat [25])?
**A.** Active

**Q.** And the inhibition (Jurkat [26])?
**A.** Active

**Q.** What about the inhibition (Jurkat [27]) of the same compound?
**A.** Active

**Q.** What about the inhibition (Jurkat [28]) of the same compound?
**A.** Active

**Q.** And the inhibition [29]?
**A.** Active

**Q.** And the inhibition [30]?
**A.** Active

**Q.** And the inhibition (Mus musculus)?
**A.** Active

**Q.** What about the Activity (Jurkat [31]) of the same compound?
**A.** inactive

**Q.** What about the Activity (Jurkat [32]) of the same compound?
**A.** inactive

**Q.** And the Activity (Jurkat [33])?
**A.** inactive

**Q.** What about the Activity (Jurkat [34]) of the same compound?
**A.** inactive

**Q.** And the Activity (Jurkat [35])?
**A.** inactive

**Q.** And the Activity (NIH3T3 [36])?
**A.** inactive

**Q.** And the Activity (Jurkat [37])?
**A.** 0.7%

**Q.** And the Activity (Jurkat [38])?
**A.** 43.1%
